The subject of assay [1] is STZ (130 mg/kg) diabetic pigs. Briefly: Hyperinsulinemic euglycemic clamp in STZ diabetic pigs after two-week metformin treatment. The class given is in vivo, pig. The protocol:
(§1) Protocol 5: insulin-mediated whole body glucose disposal, after a two-week placebo or metformin (twice 1.5 g per day) oral treatment period under conditions of iso-energetic feeding, was studied with the hyperinsulinemic (2 mU/kg/minute) euglycemic clamp technique in 14 STZ (130 mg/kg) diabetic pigs.
After overnight fasting, at t=0 minute, insulin was administered as a prime—(17 or 34 mU/kg) continuous (1 or 2 mU/kg/minute) infusion for three hours in normal pigs. Simultaneously, a variable infusion of a 33% D-glucose solution was started and adjusted every ten minutes to maintain the plasma glucose concentration at euglycemic levels and a 6,6-^2H-glucose solution was given as a prime—(216 mg) continuous (3.6 mg/minute). Steady-state conditions were achieved within 90 minutes after initiation of the hyperinsulinemic clamp and steady-state calculations were carried out during the last hour of the clamp (t=120, 135, 150, 165 and 180 minutes). In hyperglycemic diabetic pigs, insulin was given as a prime—(34 or 136 mU/kg) continuous (2 or 8 mU/kg/minute) infusion for five hours. After reaching euglycemic levels, a variable infusion of a 33% D-glucose solution was started and adjusted every ten minutes to maintain the plasma glucose concentration at euglycemia. At t=2 hours, 6,6-^2H-glucose was administered as a prime— (216 mg) continuous (3.6 mg/minute) infusion for the last three hours of the clamp in diabetic pigs. Steady-state conditions were achieved during the last hour of the clamp and steady-state calculations were carried out at (t=240, 255, 270, 285 and 300 minutes).

A further assay concerns rodent. The conditions noted are these: rodent studies, relatively high doses (100 to 500 mg/kg); cited from earlier work.
Assay [2] has as its system STZ (130 mg/kg) diabetic pigs. Briefly: Two-week oral metformin treatment of STZ diabetic pigs: postprandial plasma glucose and insulin, body weight, urinary glucose excretion. In kind it is in vivo, pig. The protocol:
as §1
Fasting blood samples were taken before the start of hyperinsulinemic clamp experiments and postprandial blood samples were taken two to three hours after a morning meal in the week following a clamp study.
Plasma insulin concentration was measured using a Delfia assay (test kit No. B080-1101 by Perkin Elmer Life Sciences, trust by Wallac Oy, Turku, Finland). This specific pig insulin assay was validated using pig insulin standards. Plasma and urine glucose concentrations were analyzed enzymically on an autoanalyzer of Radiometer (ABL and AML, Copenhagen, Denmark). Urine was collected in buckets containing 0.5 grams Halamid-d (sodium-p-toluenesulfonchloramide, Akzo Nobel Chemicals, Amersfoort, NL) to prevent microbial breakdown of glucose. Urine volume was registered over a given interval in order to calculate the rate of urinary glucose excretion. Urine samples (0.5 mL) were stored at −20° C. for later glucose analyses. Ketones (acetoacetic acid) were determined in fresh urine by a reagent strip test (Ketostix, Bayer Diagnostics, Mijdrecht, NL).

Setting [3] is: after two weeks metformin, insulin 2 mU/kg/minute.
The mark [4] stands for this setting: metformin twice 1.5 g per day oral, two weeks.

Consider `CN(C)C(=N)N=C(N)N` [Metformin, metformin], for which, in assay [1] (after two weeks metformin), the Fasting plasma glucose is on record as 14.7 ± 1.5 mmol/L; the Fasting plasma insulin turned out to be 11 ± 6 mU/L; the “Fasting plasma insulin, range” value was “range (3-37) mU/L”; the “Increase in insulin-stimulated whole body glucose disposal compared to placebo-treated diabetic pigs” value amounted to 60%. Further, in assay [1] (after two weeks metformin), the “Reduction in fasting plasma glucose compared to placebo-treated diabetic pigs” value is given as 24%. Besides, in assay [1] (setting [3]), the “Steady-state clamp glucose infusion rate (whole body glucose disposal)” value stood at 9.4 ± 2.2 mg/kg/min, the “Steady-state clamp plasma glucose” value is given as 5.3 ± 0.3 mmol/L, the “Steady-state clamp plasma insulin” value is 42 ± 7 mU/L and the “Time to reach euglycemia in diabetic pigs” value was 105 ± 28 min. For the same compound, the “Steady-state clamp glucose infusion rate (whole body glucose disposal)” value in assay [1] (after two weeks metformin, insulin 2 mU/kg/minute, listed as metformin) was determined as 9.4 mg/kg/min. Also, the “Whole body glucose disposal, metformin group compared to placebo group” value in assay [1] (similar insulin stimulation) is recorded as 1.6 fold. Also, in the assay with rodent, the “Effect on glucose homeostasis” value is on record as “immediate (within days) effect”. Also, the “Reduction in postprandial plasma glucose compared to placebo-treated pigs” value in assay [2] (after 14 days of metformin) is listed as 30%. For the same compound, in assay [2] (metformin group, baseline), the “Postprandial plasma glucose, before treatment” value was 31.0 ± 5.8 mmol/L and the “Postprandial plasma insulin, before treatment” value is recorded as 1 ± 0 mU/L. In assay [2] (setting [4]), the “Postprandial plasma glucose, at end of treatment” value is 24.9 ± 2.2 mmol/L and the “Postprandial plasma insulin, at end of treatment” value was determined as 3 ± 1 mU/L.

(Values after patent publication US20070271620A1, “Animal model for type II diabetes mellitus and Syndrome X and methods and uses thereof” (priority 2005, published 2007).)
